These results are taken from patent publication US9980943B2, “Methods of treating muscular dystrophy” (BOARD OF REGENTS OF THE NEVADA SYSTEM OF HIGHER EDUCATION, …, priority 2013, dated 2018).

Molecules are shown by their SMILES.

Holding throughout (assay type): cell-based, mouse
Experiment [1] relates to α7 integrin (LacZ reporter in α7βgal+/− myoblasts). Description: Myoblast α7+/LacZ integrin FDG assay (Burkin assay in myoblasts, 96-well). Particulars: 96-well; for Burkin Assay in Myoblasts, signal relative to DMSO: α7+/LacZ myoblasts; for Burkin Assay in Myoblasts, value relative to DMSO: SU9516 analogs, N=3-6.
The test system of experiment [2] is β-galactosidase in CMV-LacZ C2C12 myotubes. Description: CMV-LacZ secondary screen in C2C12 myotubes (β-Gal stabilizing assay). The following applies: for CMV-LACZ in Myotubes, signal relative to DMSO: C2C12 CMV-LacZ myotubes, fold relative to DMSO; for CMV-LACZ in Myotubes, value relative to DMSO: SU9516 analogs, C2C12 CMV-LacZ, N=2. Summed up: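 β-Gal level was the read-out, measured in a clonal C2C12 line expressing LacZ from a CMV promoter. Dose-response curves used six concentrations, 0.5 μM up to 40 μM, with duplicate points.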

Experiment [3] concerns α7 integrin (LacZ reporter in α7+/LacZ myotubes). The experiment in a line: Myotube α7 integrin FDG assay (Burkin assay in myotubes, 96-well). Particulars: for Burkin Assay in Myotubes, value relative to DMSO: SU9516 analogs, 96-well, N=3-6.
Experiment [4] relates to β-galactosidase in CMV-LacZ C2C12 myoblasts. The experiment in a line: CMV-LacZ secondary screen in C2C12 myoblasts (β-Gal stabilizing assay). The following applies: for CMV-LACZ in Myoblasts (β-galactosidase activity relative to DMSO): CMV-LacZ C2C12 myoblasts; for CMV-LACZ in Myoblasts, value relative to DMSO: SU9516 analogs, C2C12 CMV-LacZ, N=2. Summed up:
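A secondary screen identifies compounds that stabilize β-gal independently of the native promoter, using CMV-LacZ C2C12 cells. Curves span 0.5–40 μM at six levels, in duplicate.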

In the case of `CN(CC(=O)Nc1cccc(F)c1)C(=O)c1ccc(-c2ccc(Cl)cc2)o1` [MLS001078811-01], the “Burkin Assay in Myoblasts, signal relative to DMSO” value is recorded as 0.9376 in experiment [1] (0.5 uM); 0.9926 in experiment [1] (1 uM); 0.9583 in experiment [1] (5 uM); 0.891 in experiment [1] (10 uM); 1.681 in experiment [1] (20 uM); 0.7411 in experiment [1] (40 uM). Further, the “CMV-LACZ in Myotubes, signal relative to DMSO” value in experiment [2] (0.5 uM) came to 0.8486; in experiment [2] (1 uM), 0.9086; in experiment [2] (5 uM), 1.1571; in experiment [2] (10 uM), 0.9981; in experiment [2] (20 uM) it was 1.0510; in experiment [2] (40 uM), 0.6710. For the same compound, the “Burkin Assay in Myotubes, α7 integrin LacZ reporter signal relative to DMSO” value in experiment [3] (0.5 uM) came to 0.9163; in experiment [3] (1 uM) it was 0.9064; in experiment [3] (5 uM), 0.9816; in experiment [3] (10 uM), 0.8773; in experiment [3] (20 uM), 0.6307; in experiment [3] (40 uM), 0.4598. The “CMV-LACZ in Myoblasts (β-galactosidase activity relative to DMSO)” value in experiment [4] (0.5 uM) stood at 1.2397; in experiment [4] (1 uM) it was 1.2290; in experiment [4] (5 uM) it was 0.7927; in experiment [4] (10 uM), 0.6873; in experiment [4] (20 uM), 0.8393; in experiment [4] (40 uM) it was 0.9014.

On to `COc1ccc2c(c1)/C(=C\c1cccc(/C=C3/C(=O)Nc4ccc(OC)cc43)n1)C(=O)N2` [MLS002702497-01], for which the “Burkin Assay in Myoblasts, value relative to DMSO” value in experiment [1] (0.5 uM) amounted to 0.7804; in experiment [1] (1 uM), 0.5545; in experiment [1] (5 uM) it was 0.175; in experiment [1] (10 uM), 0.1888; in experiment [1] (20 uM), 0.05588; in experiment [1] (40 uM) it was 0.04886. In addition, the “CMV-LACZ in Myotubes, value relative to DMSO” value in experiment [2] (0.5 uM) amounted to 1.1181; in experiment [2] (1 uM), 2.2829; in experiment [2] (5 uM), 7.0726; in experiment [2] (10 uM), 6.3598; in experiment [2] (20 uM) it was 0.6520; in experiment [2] (40 uM), 0.6550. Also, the “Burkin Assay in Myotubes, value relative to DMSO” value in experiment [3] (0.5 uM) is listed as 0.8414; in experiment [3] (1 uM) it was 0.749; in experiment [3] (5 uM), 0.7692; in experiment [3] (10 uM), 0.7814; in experiment [3] (20 uM) it was 0.4567; in experiment [3] (40 uM), 0.3839. In addition, the “CMV-LACZ in Myoblasts, value relative to DMSO” value in experiment [4] (0.5 uM) is listed as 0.8643; in experiment [4] (1 uM) it was 1.0213; in experiment [4] (5 uM) it was 2.6344; in experiment [4] (10 uM), 3.6076; in experiment [4] (20 uM) it was 0.2593; in experiment [4] (40 uM), 0.2779.

As to `COc1ccccc1C(=O)OCc1ccc2sc(C)nc2c1` [MLS001006798-01], the “Burkin Assay in Myoblasts, signal relative to DMSO” value in experiment [1] (0.5 uM) is on record as 1.191; in experiment [1] (1 uM), 0.9282; in experiment [1] (5 uM) it was 1.133; in experiment [1] (10 uM), 1.008; in experiment [1] (20 uM), 1.118; in experiment [1] (40 uM), 1.016. In addition, the “CMV-LACZ in Myotubes, signal relative to DMSO” value in experiment [2] (0.5 uM) is 1.0419; in experiment [2] (1 uM), 0.9648; in experiment [2] (5 uM), 1.2236; in experiment [2] (10 uM), 1.0267; in experiment [2] (20 uM), 0.9953; in experiment [2] (40 uM) it was 1.0976. For the same compound, the “Burkin Assay in Myotubes, α7 integrin LacZ reporter signal relative to DMSO” value in experiment [3] (0.5 uM) was 0.9345; in experiment [3] (1 uM) it was 1.042; in experiment [3] (5 uM), 1.06; in experiment [3] (10 uM), 0.8906; in experiment [3] (20 uM), 0.9746; in experiment [3] (40 uM), 0.8886. Also, the “CMV-LACZ in Myoblasts (β-galactosidase activity relative to DMSO)” value in experiment [4] (0.5 uM) was 0.8334; in experiment [4] (1 uM), 1.0326; in experiment [4] (5 uM), 1.1509; in experiment [4] (10 uM), 1.0189; in experiment [4] (20 uM), 0.9622; in experiment [4] (40 uM), 0.8263.

As to `CCOC(=O)C1(Cc2cccc(Cl)c2)CCCN(C(=O)CCSC)C1` (stereo not drawn) [MLS001000299-01], the “Burkin Assay in Myoblasts, signal relative to DMSO” value is on record as 1.089 in experiment [1] (0.5 uM); 0.9953 in experiment [1] (1 uM); 0.9552 in experiment [1] (5 uM); 0.975 in experiment [1] (10 uM); 0.9397 in experiment [1] (20 uM); 0.7738 in experiment [1] (40 uM). Besides, the “CMV-LACZ in Myotubes, signal relative to DMSO” value is listed as 0.6411 in experiment [2] (0.5 uM); 1.3158 in experiment [2] (1 uM); 1.0658 in experiment [2] (5 uM); 0.9029 in experiment [2] (10 uM); 0.9544 in experiment [2] (20 uM); 1.0744 in experiment [2] (40 uM). Further, the “Burkin Assay in Myotubes, α7 integrin LacZ reporter signal relative to DMSO” value in experiment [3] (0.5 uM) is reported as 0.9225; in experiment [3] (1 uM), 1.006; in experiment [3] (5 uM), 0.8764; in experiment [3] (10 uM), 0.9163; in experiment [3] (20 uM), 0.793; in experiment [3] (40 uM) it was 0.5578. Also, the “CMV-LACZ in Myoblasts (β-galactosidase activity relative to DMSO)” value came out at 1.4188 in experiment [4] (0.5 uM); 1.2745 in experiment [4] (1 uM); 0.9901 in experiment [4] (5 uM); 0.8248 in experiment [4] (10 uM); 1.1522 in experiment [4] (20 uM); 1.0107 in experiment [4] (40 uM).

With `CCCS(=O)(=O)c1nc(S(=O)(=O)c2ccc(C)cc2)c(N2CCCC2)s1` [MLS000113985-01], the “Burkin Assay in Myoblasts, signal relative to DMSO” value in experiment [1] (0.5 uM) is recorded as 1.065; in experiment [1] (1 uM) it was 1.018; in experiment [1] (5 uM), 0.7898; in experiment [1] (10 uM), 0.4804; in experiment [1] (20 uM), 0.1779; in experiment [1] (40 uM), 0.122. The “CMV-LACZ in Myotubes, signal relative to DMSO” value came to 1.0629 in experiment [2] (0.5 uM); 1.0638 in experiment [2] (1 uM); 1.0031 in experiment [2] (5 uM); 1.0241 in experiment [2] (10 uM); 1.0541 in experiment [2] (20 uM); 1.0482 in experiment [2] (40 uM). Besides, the “Burkin Assay in Myotubes, α7 integrin LacZ reporter signal relative to DMSO” value was 0.9882 in experiment [3] (0.5 uM); 1.037 in experiment [3] (1 uM); 0.9919 in experiment [3] (5 uM); 0.9925 in experiment [3] (10 uM); 0.7655 in experiment [3] (20 uM); 0.6679 in experiment [3] (40 uM). The “CMV-LACZ in Myoblasts (β-galactosidase activity relative to DMSO)” value in experiment [4] (0.5 uM) came to 0.9809; in experiment [4] (1 uM), 1.0049; in experiment [4] (5 uM) it was 1.0836; in experiment [4] (10 uM), 0.9187; in experiment [4] (20 uM), 0.2126; in experiment [4] (40 uM), 0.1841.
